This is an account of results in patent US8093239B2, “Imidazopyridine kinase inhibitors” (GlaxoSmithKline LLC, priority 2007, dated 2012).

The subject of data set [1] is LISN cell (mouse 3T3 fibroblasts transduced with human IGF-1R) tumors. Briefly: In vivo efficacy, mice bearing LISN cell tumors. The settings on record: for tumor growth inhibition at day 21: LISN tumors (~362 mm^3). The protocol:
E. In Vivo Efficacy—Mouse Models
The efficacy of the compounds of Examples 57 and 58 were assessed together in an in vivo efficacy experiment performed on mice bearing LISN cell (mouse 3T3 fibroblasts transduced with human IGF-1R) tumors. Fifty six female nude mice bearing subcutaneous LISN cell tumors were measured for tumor size and body weight and block randomized into seven groups of eight mice with an equal average tumor volume of approximately 200 mm3. Mice were dosed with either vehicle (20% SBE pH3.5), Example 57 or Example 58. The dosing schedules for each compound were based on previous experiments with the compounds and doses chosen to give the highest tumor growth inhibition and a dose response. Example 58 was dosed at 30, 100 and 300 mg/kg QD for 21 days while Example 57 was dosed at 30 mg/kg QD for 21 days, 15 mg/kg BID for 21 days and 30 mg/kg QD×3 days/week for 3 weeks.
The tumors on mice being treated with vehicle grew with the expected exponential growth throughout the 21 day study. […] The lower dose of 30 mg/kg of Example 58 achieved 28% tumor growth inhibition.
The efficacy of the compounds of Examples 237 and 219 were assessed together in an in vivo efficacy experiment performed on mice bearing LISN cell (mouse 3T3 fibroblasts transduced with human IGF-1R) tumors. Sixty four female nude mice bearing subcutaneous LISN cell tumors were measured for tumor size and body weight and block randomized into eight groups of eight mice with an equal average tumor volume of approximately 362 mm^3. Mice were dosed with either vehicle (20% SBE pH3.5), Example 237 or Example 219. The dosing schedules for each compound were based on previous experiments with the compounds and doses chosen to give the highest tumor growth inhibition and a dose response. Example 237 was administered at 30 and 60 mg/kg QD for 21 days and 30 mg/kg BID for 21 days while Example 219 was administered at 50 and 100 mg/kg QD for 21 days, 25 and 50 mg/kg BID for 21 days.
The tumors on mice being treated with vehicle grew with the expected exponential growth throughout the 21 day study. […] The lower dose of 30 mg/kg QD of Example 237 achieved 15% tumor growth inhibition at day 21 (note: 2 animals were euthanized prior to the last measurement). […] This recovered to 3% by the end of dosing and fully recovered after dosing was concluded. […] This recovered fully within 4 days after the completion of dosing.

Data set [2] concerns Colo-205 tumors (colon carcinoma cell line). Briefly: In vivo efficacy, Colo-205 tumor bearing mice. More on the design: species or system mouse. The settings on record: Colo-205 study. The method, then:
(§1) In addition to the LISN xenograft efficacy studies, Example 57 has also been assessed in vivo in two other mouse models of cancer, including: Colo-205 tumor bearing mice (colon carcinoma cell line) and BT474 tumor bearing mice (breast carcinoma cell line). Forty female nude mice bearing Colo-205 tumors (average tumor size of 200 mm3) were randomized into five groups of eight mice and dosed with either vehicle (20% SBE pH3.5) or Example 57 at 100, 30, 10 mg/kg QD or 30 mg/kg BID for 21 days. The groups of mice dosed with the higher doses of Example 57 (100 mg/kg QD and 30 mg/kg BID) lost greater than 20% body weight within 10 days of dosing so were taken off the study and allowed to recover. […] The higher doses of 100 mg/kg QD×10 and 30 mg/kg BID×10 achieved 72 and 49% tumor growth inhibition respectively.

The test system of data set [3] is BT474 cell tumors (breast carcinoma cell line). Briefly: In vivo efficacy, BT474 tumor bearing mice. More on the design: species or system mouse. The conditions noted are these: BT474 study, all groups (60, 30, 15 mg/kg QD, 15 mg/kg BID). The method, then: as §1
Due to the body weight loss seen with the higher doses in the Colo-205 xenograft efficacy study, the dosing regime was altered for the follow up BT474 study. Forty female nude mice bearing subcutaneous BT474 cell tumors (average tumor size of 200 mm3) were randomized into five groups each containing eight mice and dosed with either vehicle (20% SBE pH3.5) or Example 57 at 60, 30 or 15 mg/kg QD or 15 mg/kg BID for 21 days. Note the maximal QD dose was reduced from 100 mg/kg to 60 mg/kg and the BID dose reduced from 30 mg/kg to 15 mg/kg. […]

[4] abbreviates: LISN study (~362 mm^3), 100 mg/kg and 50 mg/kg QD.

A value given as a limit tells only on which side of the number the result lay.

Regarding `COc1cc(N2CCC(N3CCN(S(C)(=O)=O)CC3)CC2)ccc1Nc1nccc(-c2c(-c3cccc(C(=O)Nc4c(F)cccc4F)c3)nc3ccccn23)n1` [Example 58, N-(2,6-difluorophenyl)-3-(3-{2-[(2-(methyloxy)-4-{4-[4-(methylsulfonyl)-1-piperazinyl]-1-piperidinyl}phenyl)amino]-4-pyrimidinyl}imidazo[1,2-a]pyridin-2-yl)benzamide], the body weight loss entry in data set [1] (LISN study, 30, 100 and 300 mg/kg QD for 21 days, throughout the study) is “no effect of Example 58 on body weight loss”.
In the case of `COc1cc(N2CCC(N3CCN(CCF)CC3)CC2)ccc1Nc1nccc(-c2c(-c3cccc(C(=O)Nc4c(F)cccc4F)c3)nc3ccccn23)n1` [Example 57, N-(2,6-difluorophenyl)-3-[3-(2-{[4-{4-[4-(2-fluoroethyl)-1-piperazinyl]-1-piperidinyl}-2-(methyloxy)phenyl]amino}-4-pyrimidinyl)imidazo[1,2-a]pyridin-2-yl]benzamide], in data set [2] (100 mg/kg QD and 30 mg/kg BID, within 10 days of dosing), the body weight lost result is on record as “greater than 20%”. Further, the body weight loss entry in data set [2] (30 and 10 mg/kg QD×21) was “no body weight loss”; in data set [3], “no body weight loss”; in data set [1] (LISN study, 30 mg/kg QD and 15 mg/kg BID treated groups, 21 days), “no body weight loss”; in data set [1] (LISN study, 30 mg/kg QD×3 days/week for 3 weeks, over the three consecutive days of dosing, recovered in the four days between doses), “significant body weight loss”. For the same molecule, in data set [1] (LISN study, 30 mg/kg QD and 15 mg/kg BID, 21 days), the tolerability entry is recorded as “well tolerated”.
Consider `CCc1cc(Nc2nccc(-c3c(-c4ccc(OC)c(C(=O)Nc5c(F)cccc5F)c4)nc4ccccn34)n2)c(OC)cc1N1CCC(N2CCN(S(C)(=O)=O)CC2)CC1` [Example 237, N-(2,6-difluorophenyl)-5-(3-{2-[(5-ethyl-2-(methyloxy)-4-{4-[4-(methylsulfonyl)-1-piperazinyl]-1-piperidinyl}phenyl)amino]-4-pyrimidinyl}imidazo[1,2-a]pyridin-2-yl)-2-(methyloxy)benzamide], for which the “initial body weight loss” value in data set [1] (LISN study (~362 mm^3), 30 mg/kg BID) is given as 6%. Besides, the “body weight loss by the end of dosing” value in data set [1] (LISN study (~362 mm^3), 30 mg/kg BID, fully recovered after dosing was concluded) is 3%. Besides, the body weight loss entry in data set [1] (LISN study (~362 mm^3), other groups (30 and 60 mg/kg QD)) is “no effect on body weight loss”. Also, the “tumor growth inhibition at day 21” value in data set [1] (30 mg/kg BID for 21 days) was found to be 84%; in data set [1] (30 mg/kg QD for 21 days, 2 animals euthanized prior to the last measurement) it was 15%; in data set [1] (60 mg/kg QD for 21 days) it was 41%.
On to `CCOc1cc(N2CCC(CCS(C)(=O)=O)CC2)c(C)cc1Nc1nccc(-c2c(-c3ccc(OC)c(C(=O)Nc4c(F)cccc4F)c3)nc3ccccn23)n1` [Example 219, N-(2,6-difluorophenyl)-5-(3-{2-[(2-(ethyloxy)-5-methyl-4-{4-[2-(methylsulfonyl)ethyl]-1-piperidinyl}phenyl)amino]-4-pyrimidinyl}imidazo[1,2-a]pyridin-2-yl)-2-(methyloxy)benzamide], for which, in data set [1] (LISN study (~362 mm^3), 25 mg/kg BID and 50 mg/kg BID), the “time to full recovery of body weight after the completion of dosing” value is not above 4 days. Further, the body weight loss is reported as 4% in data set [1] (LISN study (~362 mm^3), 25 mg/kg BID for 21 days); 6% in data set [1] (LISN study (~362 mm^3), 50 mg/kg BID for 21 days); “no body weight loss” in data set [1] (setting [4]). The tolerability entry in data set [1] (setting [4]) was “well tolerated”.
